Data: patent US8669377B2, “Anti-human urothelial carcinoma of supercritical carbon dioxide extract of Cinnamomum subavenium, and the preparation process and uses” (Kaohsiung Medical University, priority 2011, dated 2014)
Like-named read-outs stand apart in the source and are kept apart here.

What was measured:
[1] = system: normal urothelial cell line SV-HUC-1; experiment: MTT cytotoxicity assay, SV-HUC-1; format: cell-based, human; conditions: SV-HUC-1, 72 hours; read-out: IC50 (reduction of growth)
Description: (§1) Cytotoxicity assay was performed by using C. subavenium supercritical CO2 extract obtained according to the preparation method mentioned above. […] C. subavenium supercritical CO2 extract selectively functioned on NTUB1 carcinoma cells rather than the normal cells.
Cellular cytotoxicity of tested compounds was performed by using a MTT (3-[4,5-dimethylthiazol-2-yl]-2,5-diphenyltetrazolium bromide) assay. Briefly, the cells were plated with a density of 1×10^3 cells/well in 96-well plates and incubated at 37° C. overnight before drug treatment. Cells were then cultured in the absence or presence of various concentrations (0.3, 1, 3, 6, 9, 12, 15 and 20 μM) of subamolide A at 37° C. for 72 hours. Subsequently, 50 μL of MTT (2 mg/mL in PBS) was added to each well and allowed to react for another 4 hours. Following centrifugation at 1000×g for 10 minutes, media were removed and 150 μL DMSO were added to each well. The proportions of surviving cells were determined by absorbance spectrometry at 540 nm using a microplate reader. The cell viability was expressed as the survival ratio to the un-treated control. The IC50 values of each group were calculated by the median inhibitory analysis and presented as means±SD. The combinational effects of two compounds were analyzed by median-effect analysis. […]

[2] = system: prostate cancer cells PC3; experiment: MTT cytotoxicity assay, PC3; format: cell-based, human; conditions: PC3, 72 hours; read-out: IC50 (reduction of growth)
Description: (§2) Cellular cytotoxicity of tested compounds was performed by using a MTT (3-[4,5-dimethylthiazol-2-yl]-2,5-diphenyltetrazolium bromide) assay. Briefly, the cells were plated with a density of 1×10^3 cells/well in 96-well plates and incubated at 37° C. overnight before drug treatment. Cells were then cultured in the absence or presence of various concentrations (0.3, 1, 3, 6, 9, 12, 15 and 20 μM) of subamolide A at 37° C. for 72 hours. Subsequently, 50 μL of MTT (2 mg/mL in PBS) was added to each well and allowed to react for another 4 hours. Following centrifugation at 1000×g for 10 minutes, media were removed and 150 μL DMSO were added to each well. The proportions of surviving cells were determined by absorbance spectrometry at 540 nm using a microplate reader. The cell viability was expressed as the survival ratio to the un-treated control. The IC50 values of each group were calculated by the median inhibitory analysis and presented as means±SD. The combinational effects of two compounds were analyzed by median-effect analysis. To evaluate the combined effects in growth inhibition, a corresponding combination index (CI) was adopted for the measurement. The combination index of <1, =1, or >1 denotes synergic, additive, or antagonistic effect, respectively.

[3] = system: urothelial carcinoma cells T24; experiment: MTT cytotoxicity assay, T24; format: cell-based, human; conditions: T24, 72 hours; read-out: IC50 (reduction of growth)
Description: as §2

NTUB1 cells [4] = experiment: Intracellular ROS (DCFH-DA flow cytometry), NTUB1; format: cell-based, human; conditions: NTUB1, 10 μM, compared with control cells
Description: (§3) Production of ROS was analyzed by flow cytometry. Briefly, cells were plated in 6-well plates, and dichlorofluorescein diacetate (DCFH-DA, […]) were added to the treated cells 30 minutes prior to harvest. The cells were collected by trypsinization and washed with PBS. The green fluorescence of intracellular DCF (2′,7′-dichlorofluorescein) was then analyzed by FACScan™ flow cytometer with a 525-nm band pass filter. The ROS production efficiency (M1 ratio) was calculated as “[counts of treated sample in M1−counts of control in M1]/counts of control in M1×100”.

[5] = system: human urothelial carcinoma cell line NTUB1; experiment: MTT cytotoxicity assay, NTUB1; format: cell-based
Description: as §1, §2

NTUB1 cells [6] = experiment: Immunoblotting of cellular proteins; format: cell-based, human
NTUB1 cells [7] = experiment: Cell cycle / sub-G1 apoptotic fraction by flow cytometry; format: cell-based, human; conditions: 24 hours
SV-HUC-1 cells = experiment: Intracellular ROS (DCFH-DA flow cytometry), SV-HUC-1; format: cell-based, human; conditions: SV-HUC-1, 10 μM, compared with control cells
Description: as §3

NTUB1 cells [8] = experiment: Combinational cytotoxicity (MTT, combination index, median-effect analysis); format: cell-based, human; conditions: 24, 48, 72 hours
Description: as §2, with “respectively. […]” for “respectively.”

(3Z,4R,5R)-3-tetradecylidene-4-hydroxy-5-methoxy-5-methylbutanolide [subamolide A]
IC50 [1]: 18.1 ± 1.03 µM
IC50 [2]: 10.1 ± 0.59 µM
IC50 [3]: 7.6 ± 0.96 µM
ROS M1 ratio (NTUB1 cells [4]): −14.7±0.99%
IC50 ([5]; NTUB1, 72 hours, read-out: IC50 (reduction of growth)): 7.26 ± 0.67 µM
Bax/Bcl-2 ratio, fold of change (NTUB1 cells [6]; 10 μM): two-fold increase
cytochrome c released from mitochondria to cytosol, fold of change (NTUB1 cells [6]; 10 μM): 2.3 folds
ERK1/2 activation (immunoblot) (NTUB1 cells [6]; 10 μM, 24 hours, not p38 or JNK): specifically activated
p53 protein and phosphorylation of p53 at serine 15 (NTUB1 cells [6]; NTUB1 cells): induced
pro-caspase 3 and 116 kDa full length PARP proteins (NTUB1 cells [6]; with increased concentration): decreased
sub-G1 apoptotic fraction (NTUB1 cells [7]; 1 μM): 5%
sub-G1 apoptotic fraction (NTUB1 cells [7]; 5 μM): 10.8%
sub-G1 apoptotic fraction (NTUB1 cells [7]; 10 μM): 21.9%
ROS M1 ratio (SV-HUC-1 cells): −11.6±1.41%
combinational effect with CDDP (NTUB1 cells [8]; subamolide A 0, 1, 5, 10 μM + CDDP 1 and 3 μM): synergism
combinational effect with Gem (NTUB1 cells [8]; subamolide A 0, 1, 5, 10 μM + Gem 2 and 8 nM): synergism

Nc1ccn([C@@H]2O[C@H](CO)[C@@H](O)C2(F)F)c(=O)n1 [Gem, 4-amino-1-(2-deoxy-2,2-difluoro-β-D-erythro-pentofuranosyl)-pyrimidin-2(1H)-on]
IC50 ([5]; Homo sapiens, NTUB1, 72 hours, 1×10^3 cells/well (data not shown), read-out: IC50 to NTUB1 cells): 0.008 µM

N.N.[Cl][Pt][Cl] [CDDP, cis-diamminedichloridoplatinum]
IC50 ([5]; 72 hours, 1×10^3 cells/well (data not shown), read-out: IC50 to NTUB1 cells): 3 µM
